According to patent US20100022495A1, “MODULATING ENDOPLASMIC RETICULUM STRESS IN THE TREATMENT OF TUBEROUS SCLEROSIS” (PRESIDENT AND FELLOWS OF HARVARD COLLEGE, priority 2005, published 2010):

What was measured:
[1] = test system: TSC2−/− MEFs; test: ER stress parameters (western blot, XBP-1 rt-PCR) in TSC2-deficient MEFs; format: cell-based, mouse; details: for splicing of XBP-1 mRNA (UPR activation): thapsigargin 0.05 nM, tunicamycin 0.002 ug/ml, compared with controls
Procedure: (§1) All of the mouse embryonic fibroblast (MEF) cell lines (TSC1+/+, TSC1−/−, TSC2+/+, TSC2−/−) were cultured in medium containing DMEM-H+10% fetal bovine serum (FBS)+1% PS (penicillin-streptomycin complex) in 175 cm^2 cell culture flasks using standard methods. Upon reaching 90% confluency, cells were split into 10 cm dishes at 30-40% confluency and grown again in DMEM-H+10% FBS+1% PS to about 60% confluency for experiments.
At the start of the experiment, cells were placed in fresh media and treated with 200 nM Rapamycin or 10 mM […], and DMSO or PBS as respective vehicle controls (PBA was dissolved in PBS, and rapamycin was dissolved in DMSO), for 19 hours. As a vehicle control, DMSO was not present at a sufficiently high concentration to act as a chemical chaperone. Cells were then washed 3 times with serum-free DMEM-H+1% PS and incubated for 5 hours in serum free DMEM-H+1% PS in the presence of rapamycin or PBA and their appropriate vehicle controls. At the end of the incubation, the media was removed and dishes were immediately frozen in liquid nitrogen and stored at −80° C. untile further use.
(§2) Protein extracts were prepared with a lysis buffer containing 25 mM Tris-HCl (pH 7.4), 2 mM Na3VO4, 10 mM NaF, 10 mM Na4P2O7, 1 mM EGTA, 1 mM EDTA, 1% NP-40, 5 ug/ml leupeptin, 5 ug/ml aprotinin, 10 nM okadaic acid, and 1 mM phenylmethylsulfonyl fluoride (PMSF). Immunoprecipitations and immunoblotting experiments were performed with 200 and 75 μg total protein, respectively without any freeze-thaw cycles from individual aliquots.
(§3) Protein concentrations were normalized and the desired amounts were aliquotted into tubes. Laemelli buffer was added to a 1× final concentration and the samples were boiled for five minutes. After boiling, the samples were incubated at room temperature for 20 minutes. The boiled, cooled lysates were centrifuged at 14,000 rpm and subject to SDS-PAGE. Proteins were transferred to PVDF membranes for western blotting.
(§4) Membrane blotting was performed using standard techniques and reagents. Appropriate modification depending on the antibodies used and other considerations, is within the ability of those skilled in the art. Membranes were blocked in 10% blocking reagent for 1 hour prior to exposure to primary antibody in tris-buffered saline-tween (TBST), pH 7.4, overnight at 4° C. Following overnight incubation, membranes were washed in TBST for 3×20 minutes and placed into secondary antibody for 1 hour. Subsequently the membrane was washed 3×20 minutes in TBST. After the washing period, the membranes were developed by using a chemiluminescence kit and the bands were visualized using a phospho imager system (VersaDoc Imaging System, Model 3000).
(§5) Phosphorylation state of the ER stress markers PERK and s6K1 were analyzed in both wild type (TSC2+/+ and TSC1+/+) and TSC-deficient (TSC2−/− and TSC1−/−) MEFs. Cells were cultured and treated with DMSO (vehicle control) or rapamycin as discussed above. Rapamycin inhibits signaling through the mTOR pathway which is required for ER stress response. The DMSO was present at too low of a concentration to act as a chemical chaperone. Cells were harvested and protein and RNA were isolated. Protein samples were resolved by SDS-PAGE and proteins were transferred to PVDF membrane for western blotting as described above. RNA was subjected to rt-PCR using probes designed to mouse XBP-1 to detect splicing.
(§6) Phosphorylation state of the ER stress markers PERK, eIF2α cJun, JNK and s6K1, and the level of spliced XBP-1 were analyzed in both wild type and TSC-deficient MEFs. Cells were treated with PBS (vehicle control) or PBA (chemical chaperone) as discussed above. Cells were harvested, samples were resolved by SDS-PAGE, proteins were transferred to PVDF membrane, and western blots were performed as described above.

[2] = test system: TSC1−/− MEFs; test: ER stress parameters (western blot, XBP-1 rt-PCR) in TSC1-deficient MEFs; format: cell-based, mouse; details: for splicing of XBP-1 mRNA (UPR activation): thapsigargin 0.05 nM, tunicamycin 0.002 ug/ml, compared with controls
Procedure: as §1
[…] As a vehicle control, DMSO was not present at a sufficiently high concentration to act as a chemical chaperone. […] At the end of the incubation, the media was removed and dishes were immediately frozen in liquid nitrogen and stored at −80° C. untile further use.
as §2, §3, §4, §5, §6

[3] = test system: ER stress; details: western blot after treatment of the animal with the compound; cited from earlier work
[4] = test system: TSC-2−/− cells; test: Insulin signaling (IRS-1, IRS-2, Akt western blot) in TSC-2−/− cells; format: cell-based, mouse; details: PBA treatment
Procedure: (§7) For insulin signaling experiments, cells were treated exactly the same way as for analysis of ER stress parameters. At the end of a 5-hour starvation period, cells were either stimulated with PBS or with 100 nM insulin for 5 minutes for analysis of ISR phosphorylation analysis, or 15 minutes for Akt phosphorylation analysis. Samples were harvested and subjected to western blotting as described above. Blots were probed with primary antibodies targeted to total and phosphorylated insulin receptor substrate (IRS)-1, and -2, and Akt, a downstream target in the insulin signaling pathway.

[5] = test system: TSC2−/− cells; test: Apoptosis (Cell Death Elisa, caspase 3 or PARP cleavage) in TSC2−/− cells; format: cell-based, mouse
[6] = test system: IRS-1; test: Degradation pattern of IRS-1 after cycloheximide addition in TSC-1 deficient cells; format: cell-based, mouse; details: pretreatment with PBA (an hour without PBA)
Text: (§8) It has been previously shown that when ER stress is induced acutely, IRS-1 is highly phosphorylated at serine 307 residue, and insulin induced tyrosine phosphorylation is blocked. […] Eight hour stimulation with thapsigargin in the presence of MG132 leads to ubiquitination of IRS-1. […] As mentioned above, IRS-1 degradation was increased in both TSC1- and TSC2-deficient cells. […] IRS-1 protein levels became totally undetectable in an hour after cycloheximide addition, whereas pretreatment with PBA extends this period up to 4 hours.

[7] = test system: c-Jun Amino Terminal Kinase-1 (JNK-1); test: c-Jun Amino Terminal Kinase (JNK) kinase assay on immunoprecipitates from TSC2-deficient cells; format: cell-based, mouse; details: PBA 10 mM
Procedure: Cell lysates were prepared as above, and subsequently incubated with primary antibody and Sepharose beads, either Protein A Sepharose or Protein G Sepharose depending on the antibody. The samples were incubated on a rotating apparatus overnight at 4° C. Subsequently, beads were centrifuged at 14,000 rpm and washed 3 times with cold lysis buffer. If immunoprecipitates were to be subjected to SDS-PAGE, they were boiled in 2× Laemmli buffer for 5 minutes prior to loading.
Following immunoprecipitation the beads were washed 3 times with lysis buffer as described above, and two times with JNK kinase assay buffer (25 mM HEPES (pH: 7.4), 20 mM MgCl2, 20 mM β-glycerophosphate, 0.5 mM EGTA, 0.5 mM NaF, 0.5 mM NaOrthoVanadate, 1 mM PMSF) for equilibration. After washing with kinase buffer, the beads were incubated in 17 μl kinase buffer, 1 μl [^32P]γ-ATP and 4 μg of c-Jun fusion protein at 30° C. for 20 minutes. The reaction was terminated by the addition of Laemmli buffer. The samples were resolved by SDS-page and transferred to a PVDF membrane as described above. Phosphorylated c-Jun bands were visualized prior to western blotting.
Phosphorylation state of the ER stress markers PERK, eIF2α cJun, JNK and s6K1, and the level of spliced XBP-1 were analyzed in both wild type and TSC-deficient MEFs. Cells were treated with PBS (vehicle control) or PBA (chemical chaperone) as discussed above. […]

[8] = test system: TSC-1−/− cells; test: Insulin signaling (IRS-1, IRS-2, Akt western blot) in TSC-1−/− cells; format: cell-based, mouse; details: PBA treatment
Procedure: as §7

[9] = test system: TSC1−/− cells; test: Apoptosis (Cell Death Elisa, caspase 3 or PARP cleavage) in TSC1−/− cells; format: cell-based, mouse
Procedure: (§9) ER stress can cause apoptosis. […] Wild-type and TSC1−/− cells were plated in 96 well plates in DMEM-H+10% FBS+1% PS at 40-50% confluence. Upon reaching about 80% confluence, the cells were washed with DMEM-H without FBS and treated with the ER stress inducer thapsigargin (10 nM) or DMSO (vehicle control) for 6 hours in serum-free DMEM-H+1% PS. Apoptosis was analyzed by using Cell Death Elisa Kit using the manufacturer's instructions, or by detection of caspase 3 or PARP cleavage.

[10] = test system: IRS-1; test: IRS-1 degradation and ubiquitination during ER stress induced by thapsigargin or tunicamycin; format: cell-based; details: for degradation of IRS-1: prolonged exposure to ER stress
Text: as §8

[11] = test system: Wild-type control cells; test: Apoptosis in wild-type control cells; format: cell-based, mouse; details: thapsigargin, same time period (6 hours)
Procedure: as §9

[12] = test system: kidney adenomas and liver hemangiomas of TSC-2+/− mice; format: in vivo; details: thapsigargin 1 mg/kg
Procedure: To address this, we have used around ˜1 year old TSC-2+/−mice for thapsigargin (1 mg/kg) or vehicle treatment. After 7 days of thapsigargin administration we have analyzed the apoptosis with tunnel assay in the kidney adenomas. […] Increased tunnel positivity in liver hemangiomas after thapsigargin treatment was also observed, but lack of liver hemangiomas in vehicle treated group, limits the conclusions that can be drawn from the study.

[13] = test system: wild type control cells; test: UPR activation by low doses of ER stress inducers in wild type control cells; format: cell-based, mouse; details: thapsigargin 0.05 nM, tunicamycin 0.002 ug/ml
Procedure: as §1
TSC-deficient cells and their corresponding control cells were exposed to extremely low doses of thapsigargin (0.05 nM) and tunicamycin (0.002 ug/ml) at which the UPR is not activated in wild type control cells. TSC1- and TSC2-deficient cells responded to the ER stress inducers by activating the UPR as determined by increased splicing of XBP-1 mRNA when compared with their controls.

[14] = TSC2-deficient MEFs, western blot, rapamycin 200 nM, 12 hours, PBA 10 mM
[15] = TSC1-deficient MEFs, western blot, rapamycin 200 nM, 12 hours, PBA 10 mM
[16] = 8 hours in the presence of 26S proteosome inhibitor epoxomicin

C[C@@H]1C[C@@H]([C@H](O)CC2CC(=O)NC(=O)C2)C(=O)[C@@H](C)C1 [Cyclohexamide]
PERK phosphorylation [1, 14]: decrease
PERK phosphorylation [2, 15]: decrease

O=C(O)CCCc1ccccc1 [PBA, 4-phenyl butyric acid]
ER stress in animals (phosphorylation of PERK, activation of JNK, phosphorylation of IRE-1α) [3]: regulate ER stress
insulin induced IRS-1 tyrosine phosphorylation ([4]; 100 nM insulin 5 minutes): improved
insulin induced IRS-2 tyrosine phosphorylation ([4]; 100 nM insulin 5 minutes): improved
insulin induced Akt phosphorylation ([4]; 100 nM insulin 15 minutes): improved
protein levels of IRS-1 [4]: increase
rescue from ER stress inducer sensitivity ([5]; TSC2-deficient cells, treatment with chemical chaperone): at least partially rescued
Glucose starvation induced PARP and caspase-3 cleavage ([5]; TSC-2−/− cells, 4-PBA treatment): blocked
PERK phosphorylation [1, 14]: blocked
S6 phosphorylation [1, 14]: significant decrease
eIF2α phosphorylation ([1]; TSC2-deficient cells, PBA 10 mM): blocked
XBP-1 mRNA splicing after glucose starvation ([1]; TSC-2 deficient cells glucose starved in the presence of 4-PBA): significantly reduced
period until IRS-1 protein levels become undetectable after cycloheximide addition [6]: up to 4 hours
c-Jun Amino Terminal Kinase-1 (JNK-1) activity [7]: suppressed
insulin induced IRS-1 tyrosine phosphorylation ([8]; 100 nM insulin 5 minutes): improved
insulin induced IRS-2 tyrosine phosphorylation ([8]; 100 nM insulin 5 minutes): improved
insulin induced Akt phosphorylation ([8]; 100 nM insulin 15 minutes): improved
protein levels of IRS-1 [8]: increase
Glucose starvation induced PARP and caspase-3 cleavage ([9]; TSC-1−/− cells, 4-PBA treatment): blocked
PERK phosphorylation [2, 15]: block
S6 phosphorylation [2, 15]: significant decrease
s6K1 phosphorylation [2, 15]: significant decrease
eIF2α phosphorylation ([2]; TSC1-deficient cells, PBA 10 mM): substantial decrease
XBP-1 mRNA splicing after glucose starvation ([2]; TSC-1 deficient cells glucose starved in the presence of 4-PBA): significantly reduced
glucose starvation induced CHOP transcription ([2]; TSC-1 deficient cells, 4-PBA treatment): significantly reduced

C[C@H](CCC(=O)NCCS(=O)(=O)O)[C@H]1CC[C@H]2[C@@H]3[C@@H](O)C[C@@H]4C[C@H](O)CC[C@]4(C)[C@H]3CC[C@]12C [TUDCA, tauroursodeoxycholic acid]
ER stress in animals (phosphorylation of PERK, activation of JNK, phosphorylation of IRE-1α) [3]: regulate ER stress

C/C=C(/C)C(=O)O[C@H]1C(C)=C2[C@H]([C@@H]1OC(=O)CCCCCCC)[C@@](C)(OC(C)=O)C[C@H](OC(=O)CCC)[C@@]1(O)[C@H]2OC(=O)[C@@]1(C)O [thapsigargin]
apoptosis ([5]; TSC2−/− cells, thapsigargin, after 6 hours): massive apoptosis
PARP and caspase-3 cleavage ([5]; TSC-2−/− cells, induction of ER stress): increased
splicing of XBP-1 mRNA (UPR activation) ([1]; TSC2-deficient cells): increased
ubiquitination of IRS-1 [10, 16]: severe ubiquitination
ubiquitination of IRS-1 ([10]; eight hour stimulation in the presence of MG132): ubiquitination
degradation of IRS-1 [10]: degradation of IRS-1
apoptosis [11]: no apoptosis
cleaved caspase-3 or PARP cleavage ([9]; TSC1−/− cells after thapsigargin treatment, compared with controls): significantly induced
apoptosis ([9]; TSC1−/− cells, thapsigargin 10 nM, after 6 hours): massive apoptosis
splicing of XBP-1 mRNA (UPR activation) ([2]; TSC1-deficient cells): increased
tunnel positivity in liver hemangiomas ([12]; no liver hemangiomas in vehicle treated group): Increased
tunnel assay positive cells in kidney adenomas ([12]; ~1 year old TSC-2+/− mice, after 7 days): clear up-regulation
UPR activation [13]: not activated

tunicamycin
splicing of XBP-1 mRNA (UPR activation) ([1]; TSC2-deficient cells): increased
ubiquitination of IRS-1 [10, 16]: severe ubiquitination
degradation of IRS-1 [10]: degradation of IRS-1
splicing of XBP-1 mRNA (UPR activation) ([2]; TSC1-deficient cells): increased
UPR activation [13]: not activated
